# Experimental data: patent publication US20110105599A1, “THERAPEUTIC OR PREVENTIVE AGENTS FOR ISCHEMIC NEUROPATHY” (Dainippon Sumitomo Pharma Co., Ltd., priority 2003, published 2011)
# “Also recorded” adds a separate entry of the source.
# B1: semaphorin 3A: endogenous protein which collapses the nerve growth cone and suppresses axon elongation (protein, UniProt Q14563 21-771, looked up)
# Semaphorin-3A: NYQNGKNNVPRLKLSYKEMLESNNVITFNGLANSSSYHTFLLDEERSRLYVGAKDHIFSFDLVNIKDFQKIVWPVSYTRRDECKWAGKDILKECANFIKVLKAYNQTHLYACGTGAFHPICTYIEIGHHPEDNIFKLENSHFENGRGKSPYDPKLLTASLLIDGELYSGTAADFMGRDFAIFRTLGHHHPIRTEQHDSRWLNDPKFISAHLISESDNPEDDKVYFFFRENAIDGEHSGKATHARIGQICKNDFGGHRSLVNKWTTFLKARLICSVPGPNGIDTHFDELQDVFLMNFKDPKNPVVYGVFTTSSNIFKGSAVCMYSMSDVRRVFLGPYAHRDGPNYQWVPYQGRVPYPRPGTCPSKTFGGFDSTKDLPDDVITFARSHPAMYNPVFPMNNRPIVIKTDVNYQFTQIVVDRVDAEDGQYDVMFIGTDVGTVLKVVSIPKETWYDLEEVLLEEMTVFREPTAISAMELSTKQQQLYIGSTAGVAQLPLHRCDIYGKACAECCLARDPYCAWDGSACSRYFPTAKRRTRRQDIRNGDPLTHCSDLHHDNHHGHSPEERIIYGVENSSTFLECSPKSQRALVYWQFQRRNEERKEEIRVDDHIIRTDQGLLLRSLQQKDSGNYLCHAVEHGFIQTLLKVTLEVIDTEHLEELLHKDDDGDGSKTKEMSNSMTPSQKVWYRDFMQLINHPNLNTMDEFCEQVWKRDRKQRRQRPGHTPGNSNKWKHLQENKKGRNRRTHEFERAPRSV
# How the values were obtained:
# [1] = test system: increased intra ocular pressure model (retina of SD rats); assay: Pharmacological effect on an increased intra ocular pressure model (retinal layer thickness); format: in vivo, rat; details: for thickness of outer nuclear layer (ONL), Average / thickness of inner nuclear layer (INL), Average / thickness of inner plexus layer (IPL), Average: 5 μl of 0.1 mg/ml to the vitreous body; for cell death of inner granular cells due to increased intra ocular pressure (in words): overall conclusion of the example; for decrease of the thickness of the inner granular cell layer (INL) due to increased intra ocular pressure (in words) / decrease of the thickness of the inner plexus layer (IPL) due to increased intra ocular pressure (in words): compared to IOP increase load + PBS group, Student's t-test; for influence of administration on the outer nuclear layer (in words): rats with IOP increase load, pre- or post-administration to the vitreous body
# From the text: The retinal nerve consists of the extraretinal granular layer, granule cells in the retina and the gangliocyte layer, and granule cells in the retina and the gangliocyte layer receive blood supply from the central retinal artery. When pressure is imposed on the anterior chamber, a load is imposed on the cribrosa lamina which is not covered with the sclera and the central retinal artery which extends through this area is occluded, and as a result, granule cells in the retina and the gangliocyte layer becomes ischemic, and cell death occurs.
# The damage of granule cells in the retina can be readily evaluated as “the thickness of the inner nuclear layer (INL)” representing the change in number of the cells. Since the inner plexus layer, synapses between each neurons, is also damaged by the increase in the intra ocular pressure and made thinner, the thickness of the inner plexus layer (IPL) becomes an indicator to show the degree of damage. Therapeutic or preventive agents for retinal neuropathy having a suppressive effect have been explored using these two parameters as indices.
# 20 SD rats (6-week old) were used and divided into the following groups. • Sham operation (sometimes abbreviated as Sham ope hereinbelow): Five rats (Of these, 4 rats were used for analysis) • IOP (Intra Ocular pressure) treatment+PBS (5 μl was administered to the vitreous body): Five rats (Of these, 4 rats were used for analysis) • IOP (Intra Ocular pressure) treatment+test compound (5 μl was pre-administered to the vitreous body): Five rats (Of these, 4 rats were used for analysis) • IOP (Intra Ocular pressure) treatment+test compound (5 μl was post-administered to the vitreous body): Five rats (Of these, 4 rats were used for analysis) • (2) Increase in Intra Ocular Pressure
# By the following steps, increased intra ocular pressure model animals were prepared and a drug (test compound) was administered thereto.
# (i) A rat was set to a brain stereotaxic apparatus under anesthesia with […].
# (ii) The head of the rat was fixed and an eyeball was pricked with a 26-G needle attached to the tip of a tube, which was connected to a sphygmomanometry device, into the rat anterior chamber and a load was imposed so that the inner pressure of the anterior chamber was 140 to 160 mmHg.
# (iii) As for the timing of the administration of a drug into the vitreous body, the drug was administered 15 minutes before the intra ocular pressure increasing load for pre-administration, while the drug was administered 15 minutes after the intra ocular pressure increasing load for post-administration.
# (iv) Increase in intra ocular pressure was maintained for one hour, and the rat was relieved from the brain anchor after the intra ocular pressure loading and ordinarily bred for one week.
# (v) After sacrificed by suffocation with carbon dioxide, eyeballs were removed.
# (vi) A paraffin section of the retina was prepared and dyed with 0.5% cresyl violet.
# (vii) A histological image at a position 880 μm from the optic papilla (upper part of the retina) was photographed and the thicknesses of the outer nuclear layer (ONL), inner nuclear layer (INL) and inner plexus layer (IPL) were measured. • (3) Preparation of a Drug and Administration Method
# SPF-3059-1 as a test substance was dissolved in PBS to a concentration of 1 mg/ml and further diluted with PBS to 0.1 mg/ml immediately before use. 5 μl of the diluted solution was administered to the vitreous body of the left eye of a rat with a 30G double needle. • (4) Significance Test
# Intra ocular pressure was increased by the method of above (2) and significance tests were conducted by Student's t-test and Welch & F-test on the retinal protection effect of SPF-3059-1 administration in rats to which PBS was administered to the vitreous body.
# Each of the thickness of outer nuclear layer, inner nuclear layer and inner plexus layer was measured using the retina of the rats in each treatment group, and a cytoprotective effect was evaluated. […]
# [2] = test system: increased intra ocular pressure model (retina of SD rats); assay: as above; format: in vivo, rat; details: Example 2, 7-week old SD rats, 5 μl of 0.1 mg/ml to the vitreous body
# [3] = Solubility (physico-chemical properties of the prepared compound); format: physicochemical
# From the text: Each compound of the present invention is a known compound and is disclosed by WO02/09756 or WO03/062243 and can be produced from SPF-3059 strain which is a fungus belonging to the genus Penicillium. Production process and physico-chemical properties are described in the above international publication pamphlets. Specifically, the following compounds were respectively prepared. • (Compound SPF-3059-1) • Appearance: Yellow powder • High resolution fast atom bombardment mass spectrum • (HRFAB-MS) m/z (M+H)^+: • Observed value: 579.0772 • Calculated value: 579.0776 • Molecular formula: C28H18O14 • Ultraviolet visible absorption spectrum λ max (in methanol) nm(ε): […]
# cultured nerve cells = details: in a short period of time; as low as; cited from earlier work
# [4] = Example 1, 6-week old SD rats, IOP increase load + test substance post-administration, one week after load
# [5] = Example 1, 6-week old SD rats, IOP increase load + test substance pre-administration, one week after load
# [6] = Example 2, 7-week old SD rats, IOP increase load + test substance post-administration
# [7] = IOP increase load + test substance pre-administration
molecule,measurement,setting,value
CC(=O)c1c(C)c(C(=O)C2COc3cc(O)c(O)c(C(=O)O)c3C2=O)cc2c(=O)c3c(C(=O)O)c(O)c(O)cc3oc12 (centres unmarked) [SPF-3059-1],"thickness of outer nuclear layer (ONL), Average","[1]; Example 1, 6-week old SD rats, IOP increase load + test substance post-administration (15 minutes after load), one week after load",45.56 μm
same,"thickness of inner nuclear layer (INL), Average",[1]; [4],27.89 μm
same,"thickness of inner plexus layer (IPL), Average",[1]; [4],40.45 μm
same,"thickness of outer nuclear layer (ONL), Average","[1]; Example 1, 6-week old SD rats, IOP increase load + test substance pre-administration (15 minutes before load), one week after load",45.79 μm
same,"thickness of inner nuclear layer (INL), Average",[1]; [5],29.56 μm
same,"thickness of inner plexus layer (IPL), Average",[1]; [5],46.89 μm
same,cell death of inner granular cells due to increased intra ocular pressure (in words),[1],suppressed
same,decrease of the thickness of the inner granular cell layer (INL) due to increased intra ocular pressure (in words),[1]; post-administration,tends to be suppressed; also recorded: suppressing tendency
same,decrease of the thickness of the inner plexus layer (IPL) due to increased intra ocular pressure (in words),[1]; post-administration,tends to be suppressed; also recorded: suppressing tendency
same,decrease of the thickness of the inner granular cell layer (INL) due to increased intra ocular pressure (in words),[1]; pre-administration,suppressed significantly; also recorded: suppressing effect
same,decrease of the thickness of the inner plexus layer (IPL) due to increased intra ocular pressure (in words),[1]; pre-administration,suppressed significantly; also recorded: suppressing effect
same,influence of administration on the outer nuclear layer (in words),[1],does not have an influence
CC(=O)c1cc2c(=O)c3c(C(=O)O)c(O)c(O)cc3oc2c(C(C)=O)c1-c1coc2cc(O)c(O)c(C(=O)O)c2c1=O [SPF-3059-5],"thickness of inner nuclear layer (INL), Average",[1]; [6],36.76 μm
same,"thickness of inner plexus layer (IPL), Average",[1]; [6],55.15 μm
same,cell death of inner granular cells due to increased intra ocular pressure (in words),[1],suppressed
same,decrease of the thickness of the inner granular cell layer (INL) due to increased intra ocular pressure (in words),[1]; post-administration,shown statistically significantly
same,decrease of the thickness of the inner plexus layer (IPL) due to increased intra ocular pressure (in words),[1]; post-administration,suppressed significantly
same,decrease of the thickness of the inner granular cell layer (INL) due to increased intra ocular pressure (in words),[1]; pre-administration,tends to be suppressed; also recorded: suppressing tendency
same,decrease of the thickness of the inner plexus layer (IPL) due to increased intra ocular pressure (in words),[1]; pre-administration,suppressed significantly; also recorded: suppressing effect
same,influence of administration on the outer nuclear layer (in words),[1],does not have an influence
same,"thickness of outer nuclear layer (ONL), Average",[2]; IOP increase load + test substance post-administration,61.76 μm
same,"thickness of inner nuclear layer (INL), Average",[2]; [7],33.09 μm
same,"thickness of inner plexus layer (IPL), Average",[2]; [7],55.88 μm
same,"thickness of outer nuclear layer (ONL), Average",[2]; [7],60.29 μm
CC(=O)c1cc2c(=O)c3c(C(=O)O)c(O)c(O)cc3oc2c(C(C)=O)c1-c1coc2cc(O)c(O)cc2c1=O [SPF-3059-24],Solubility,[3]; in DMSO,soluble
same,Solubility,[3]; in hexane,Insoluble
same,Solubility,[3]; in methanol,soluble
same,Solubility,[3]; in water,Insoluble
B1,concentration inducing growth cone collapse of the cultured nerve cells,cultured nerve cells,10 pM
